The text below walks through data of patent publication US20240400515A1, “NPM1-DEPENDING LEUKEMIA AGENTS” (UNIVERSIDAD COMPLUTENSE DE MADRID, priority 2021, published 2024).

Entries after “also recorded” stand apart in the source; their conditions may differ.

Series [1] deals with OCI-AML3 (NPM1 C+). The series is described as follows: Viability assay (WST-1) in OCI-AML3 cell line. Type of series: cell-based. To be noted: Homo sapiens, OCI-AML-3, viability percentage relative to vehicle, 24 h. As for the experimental part: (§1) Two different acute myeloid leukemia cell lines, OCI-AML3 (NPM1 C+) and MOLM13 (NPM1 C−) were obtained from the DSMZ cell repository (Braunschweig, Germany). Cell lines were expanded and cryogenically frozen upon acquisition to establish stocks in liquid nitrogen until use. Cultured cells were maintained at 37° C. in a humidified incubator in an atmosphere of 5% CO2 and passaged every 2-3 days. RPMI media (Gibco/Life Technologies; Grand Island, NY) supplemented with 10% fetal bovine serum (FBS) (Hyclone) and 1% penicillin/streptomycin was used.
(§2) The sensitivity of the compounds on OCI-AML3 (NPM1 C+) and MOLM13 (NPM1 C−) cell viability was assessed as an in-vitro acute myeloid leukemia (AML) model. Briefly, cells were seeded at a density of 2×10^4 cells/100 μL/well in 96-well plates. Cell lines were treated for 24 h with the test compound diluted in DMSO at the concentration of 5 μM or vehicle (DMSO). Then, 10 μL of WST-1 solution ((2-(4-iodophenyl)-3-(4-nitrophenyl)-5-(2,4-disulfophenyl)-2H-tetrazolium monosodium salt, Merck) were added and the cells were incubated for 4 h at 37° C. The absorbance was measured at 450 nm using an Asys UVM 340 microplate reader (Biochrom Ltd., Cambridge, UK). The background absorbance of blank wells containing only medium was subtracted from each test well. The data were reported as viability percentage relative to vehicle, obtained from two or three independent experiments performed in triplicate (Table 1).
(In general: Tetrazolium assays rely on reduction of a dye to a coloured formazan, in cell work by metabolically active cells.)

In series [2] the test system is MOLM13 (NPM1 C−). The series is described as follows: Viability assay (WST-1) in MOLM13 cell line. Type of series: cell-based. To be noted: Homo sapiens, MOLM-13, viability percentage relative to vehicle, 24 h. The method, then:
as §1, §2

Series [3] deals with AML primary cells NPM1 mut. The experiment in a line: Viability assay in primary CD34+ cells from AML patients, NPM1 mut. To be noted: Homo sapiens, FIG. 2. Type of series: cell-based. The method, then: as §2
(§3) Primary cells from AML bone marrow patients CD34+ were isolated by anti-CD34+ microbeads (Miltenyi Biotech) from bone marrow of healthy donors and AML patients. Briefly, bone marrow samples were collected from AML and healthy patient pelvic bone, and were subjected to Ficoll-Paque density gradient separation to isolate mononuclear cells. […]

The test system of series [4] is AML primary cells NPM1 WT. The series is described as follows: Viability assay in primary CD34+ cells from AML patients, NPM1 WT. Type of series: cell-based. The conditions noted are these: Homo sapiens, FIG. 2. The method, then:
as §2, §3

The test system of series [5] is healthy donor bone marrow cells. The experiment in a line: Viability assay in CD34+ healthy donor bone marrow cells. Type of series: cell-based. To be noted: Homo sapiens, Bone marrow cell, FIG. 2, read-out: IC50 healthy donors. The method, then:
as §2, §3

For another series, the system named is AML primary cells. The experiment in a line: Colony formation unit assay in primary CD34+ cells from AML patients. The conditions noted are these: Homo sapiens, 336 h; methylcellulose culture, 14 days, FIG. 3; read-out: CFU-E: IC50 AML. Type of series: cell-based. The method, then: (§4) Sorted CD34^+ cells were plated in 24-well plates at a density of 3×10^4 cells per well in methylcellulose-based medium MethoCult GF H4434 (StemCell Technologies) containing stem cell factor (SCF), interleukin-3 (IL-3), erythropoietin (EPO) and granulocyte macrophage colony stimulating factor (GM-CSF). Test compound was added directly to the cells within the methylcellulose medium, and incubated at 37° C. in a humidified atmosphere in the presence of 5% CO2 for 14 days. Total cells from colonies formed were counted manually using an inverted microscope/phase contrast microscopy with trypan-blue. The data were presented as percentage of colonies or percentage of viable cells relative to DMSO, obtained from two or three independent experiments performed in duplicate.

Series [6] deals with healthy donor bone marrow cells. The experiment in a line: Colony formation unit assay in CD34+ healthy donor bone marrow cells. Type of series: cell-based. The conditions noted are these: Homo sapiens, Bone marrow cell, 336 h; methylcellulose culture, 14 days, FIG. 3; read-out: CFU-E: IC50 healthy donors. The method, then:
as §4

The target of series [7] is T1, NPM1 cytoplasmic form (NPM1 C+) (Homo sapiens, UniProt P06748).
T1 construct: endogenous in cells; host or cells: OCI-AML3 (DSMZ)
T1 sequence (P06748 with tags, fused parts or gaps limits assumed): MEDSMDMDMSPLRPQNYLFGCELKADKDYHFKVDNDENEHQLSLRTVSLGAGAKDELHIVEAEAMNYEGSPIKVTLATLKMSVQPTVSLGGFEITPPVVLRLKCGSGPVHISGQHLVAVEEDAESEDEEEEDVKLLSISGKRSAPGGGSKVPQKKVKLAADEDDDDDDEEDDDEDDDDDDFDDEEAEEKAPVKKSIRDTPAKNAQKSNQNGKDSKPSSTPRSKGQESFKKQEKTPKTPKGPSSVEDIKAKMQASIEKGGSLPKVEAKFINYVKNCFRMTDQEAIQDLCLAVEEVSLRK
The experiment in a line: Effect on NPM1 cytoplasmic form (NPM1 C+) by confocal microscopy in OCI-AML3. Type of series: cell-based. The conditions noted are these: OCI-AML3, 10 µM, 48 h, FIG. 4. As for the experimental part: OCI-AML3 (NPM1 C+) cells were plated onto glass coverslips or Greiner Bio-One μClear black 96-well plate (7.5×10^4 cells per well) and treated with test compound for 48 h. Then, cells were fixed with 4% paraformaldehyde for 15 min, permeabilized with 0.1% Triton X-100 for 30 min, and blocked in 5% bovine serum albumin during 1 h at rt. Incubation with primary antibodies against NPM1 (7H10B9, NOVUS Biologicals) was carried out overnight at 4° C. Alexa-488 conjugated anti-mouse or anti-rabbit antibodies (Molecular Probes) were used for detection of the reported proteins by confocal microscopy. Nuclei were counterstained with 4′,6-diamidino-2-phenylindole (DAPI) bath. A total of 35 fields per well were acquired with a ×40 magnification lens for those samples run in the Opera HCS system (Perkin Elmer). Images were segmented using the DAPI staining and the coefficient of variation of NPM1 intensity per nucleus/cytoplasm was calculated using Definiens Developer XD software.

Series [8] is described as follows: Pharmacokinetic study in mice. In kind it is in vivo, mouse. More on the design: in-vivo diffusion: dose or concentration left out as unconfirmed. To be noted: FIG. 5A. As for the experimental part: Pharmacokinetic studies for compound Ic were performed. […] The area of the molecular peak allows to calculate the concentration of the compound present in mice serum at each time.

In a further series the test system is OCI-AML3-ffLuc-GFP cells. The experiment in a line: AML xenograft mouse model (OCI-AML3-ffLuc-GFP cells in NSG mice). In kind it is in vivo. The conditions noted are these: ip administration for 3 weeks, NSG mice with 1 million OCI-AML3-GFP-Luc cells, versus vehicle, FIG. 5B. The method, then: An AML xenograft mouse model was used for the study of in vivo efficacy. Female 6-8 week-old NOD.Cg-Prkdcscid II2rgtm1WjI/SzJ (NSG) mice (Vivotecnia, Madrid, Spain) were inoculated intravenously by tail vein injection with OCI-AML3-ffLuc-GFP cells (1×10^6). The animal experiment was performed according to the guidelines of the Institutional Animal Care and Use Committees of the Comunidad de Madrid, Spain, under approved protocol (PROEX 023/17). Four days later, mice were randomized into three groups of 10 animals: the first group received intraperitoneal injections of vehicle (0.9% saline solution) five days a week; the second group received 25 mg/kg of compound Ic intraperitoneally five times a week for four weeks; the third group received intraperitoneal injections of 50 mg/kg of compound Ic five times weekly for three weeks. Mice were monitored for tumor burden, distribution and engraftment every week by IVIS whole-body bioluminescence imaging. Bioimaging of […] burden in vivo was performed by IVIS Imaging system (Caliper Life Science). Before performing, Luciferin (D-luciferin monosodium salt, Thermofisher) was prepared in PBS and 150 mg/kg of Luciferin was injected i.p.; after 10 min, luminescence signal can be detected. The signal data was analyzed by the Living Image 4.2 (Caliper Life Science) software.

The test system of series [9] is OCI-AML3 (NPM1 C+). The series is described as follows: Viability assay (WST-1) in OCI-AML3 cell line. In kind it is cell-based. To be noted: Homo sapiens, OCI-AML-3; dose-response curve, FIG. 1.
Series [10] concerns MOLM13 (NPM1 C−). The series is described as follows: Viability assay (WST-1) in MOLM13 cell line. In kind it is cell-based. To be noted: Homo sapiens, MOLM-13; dose-response curve, FIG. 1.

What is called viability is a read-out of living cells in per cent, often relative to untreated cells. Regarding `Cc1ccc([C@H]2Cc3[nH]c4ccc(C)cc4c3[C@@H](CCNCC3CC3)[C@@H]2N)cc1` [Iai, (2R,3R,4R)-4-{2-[(Cyclopropylmethyl)amino]ethyl}-6-methyl-2-(4-methylphenyl)-2,3,4,9-tetrahydro-1H-carbazol-3-amine], the viability at 5 µM with OCI-AML3 (NPM1 C+) [1] turned out to be 12 ± 2%; with MOLM13 (NPM1 C−) [2], 6 ± 2%.
With `CN[C@@H]1[C@@H](c2ccc(C)cc2)Cc2[nH]c3ccc(Cl)cc3c2[C@H]1CCNCC1CC(F)(F)C1` [Iac, (2R,3R,4R)-6-Chloro-4-(2-{[(3,3-difluorocyclobutyl)methyl]amino}ethyl)-N-methyl-2-(4-methylphenyl)-2,3,4,9-tetrahydro-1H-carbazol-3-amine], the viability at 5 µM with OCI-AML3 (NPM1 C+) [1] turned out to be 6%; with MOLM13 (NPM1 C−) [2], 5 ± 1%.
Broadly, the IC50 is the midpoint of a concentration-inhibition curve. As to `COc1ccc([C@H]2Cc3[nH]c4ccccc4c3[C@@H](CCNCC3CC3)[C@@H]2N)cc1` [Ic, (2R,3R,4R)-4-{2-[(Cyclopropylmethyl)amino]ethyl}-2-(4-methoxyphenyl)-2,3,4,9-tetrahydro-1H-carbazol-3-amine], the viability at 5 µM came to 40 ± 2% in the series on OCI-AML3 (NPM1 C+) [1] and 55 ± 6% with MOLM13 (NPM1 C−) [2]. Further, the concentration for half-maximal inhibition (IC50) in series [3] came out at 1.24 µM; in [4], 5.03 µM; in series [5], 7.89 µM; with AML primary cells, 1.26 µM; in series [6], 4.6 µM; in the series with OCI-AML3 (NPM1 C+) [9] it was 7.59 µM. This compound registered an IC50 with MOLM13 (NPM1 C−) [10] of 41.8 µM. For the same compound, the “Effect on NPM1 / NPM1C+ (confocal microscopy)” value in [7] was “inhibition of the NPM1 cytoplasmic form (NPM1 C+) of the protein; also recorded: deplete NPM1 in OCI-AML3, especially NPM1C+ form”. Besides, the “levels in mouse peripheral blood” value in series [8] (25 mg/kg intraperitoneal, first 6 h post-injection) fell in the range of 200 to 600 ng/mL. Further, the in-vivo diffusion result in series [8] (plasma concentration 30 minutes to 6 hours after ip administration) is “correct in-vivo diffusion was observed”. In addition, in the series with OCI-AML3-ffLuc-GFP cells, the “AML cell (tumour) infiltration” value is listed as “Tumour infiltration decrease was observed”.
As to `N[C@@H]1[C@@H](c2cccc(F)c2)Cc2[nH]c3ccccc3c2[C@H]1CCNCC1CC1` [Iq, (2R,3R,4R)-4-{2-[(Cyclopropylmethyl)amino]ethyl}-2-(3-fluorophenyl)-2,3,4,9-tetrahydro-1H-carbazol-3-amine], the viability at 5 µM is 18 ± 6% in the series with OCI-AML3 (NPM1 C+) [1] and 34 ± 4% in the series with MOLM13 (NPM1 C−) [2].
In the case of `CN[C@@H]1[C@@H](c2ccc(OC)cc2)Cc2[nH]c3ccccc3c2[C@H]1CCNCC1CC1` [Ir, (2R,3R,4R)-4-{2-[(Cyclopropylmethyl)amino]ethyl}-2-(4-methoxyphenyl)-N-methyl-2,3,4,9-tetrahydro-1H-carbazol-3-amine], the figures for the viability at 5 µM with OCI-AML3 (NPM1 C+) [1] and with MOLM13 (NPM1 C−) [2] were 11 ± 3% and 15%, respectively.
Regarding `Cc1cccc([C@H]2Cc3[nH]c4ccccc4c3[C@@H](CCNCC3CC3)[C@@H]2N)c1` [Il, (2R,3R,4R)-4-{2-[(Cyclopropylmethyl)amino]ethyl}-2-(3-methylphenyl)-2,3,4,9-tetrahydro-1H-carbazol-3-amine], the viability at 5 µM with OCI-AML3 (NPM1 C+) [1] came to 19 ± 7%; in the series on MOLM13 (NPM1 C−) [2] it was 32 ± 4%.
